Activity calls are given as the source filed them. No cut-off for these calls is given here.
Assays:
[1] = biological target: T1, Peroxisome proliferator-activated receptor gamma (Homo sapiens) (UniProt P37231); assay: Partial agonist activity at PPARgamma (unknown origin) assessed as induction of receptor transactivation at 0.1 to 10 uM relative to 10 uM pioglitazone
T1 sequence (whole entry): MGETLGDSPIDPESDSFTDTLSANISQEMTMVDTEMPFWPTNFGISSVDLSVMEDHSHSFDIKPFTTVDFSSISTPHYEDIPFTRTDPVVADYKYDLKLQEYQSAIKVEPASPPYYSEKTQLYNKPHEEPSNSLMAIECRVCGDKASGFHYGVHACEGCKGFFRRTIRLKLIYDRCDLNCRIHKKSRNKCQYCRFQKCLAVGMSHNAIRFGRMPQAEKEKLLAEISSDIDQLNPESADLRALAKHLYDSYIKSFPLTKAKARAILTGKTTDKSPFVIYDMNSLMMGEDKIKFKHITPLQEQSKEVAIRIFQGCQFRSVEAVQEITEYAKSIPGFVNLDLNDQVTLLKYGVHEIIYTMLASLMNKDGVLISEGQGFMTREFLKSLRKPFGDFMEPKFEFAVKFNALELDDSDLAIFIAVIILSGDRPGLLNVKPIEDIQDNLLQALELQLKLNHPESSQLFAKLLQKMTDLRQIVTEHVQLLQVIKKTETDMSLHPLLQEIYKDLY

[2] = biological target: T1, Peroxisome proliferator-activated receptor gamma (Homo sapiens); assay: Antagonist activity at PPARgamma (unknown origin) assessed as inhibition of 10 uM pioglitazone-induced receptor transactivation at 0.1 to 10 uM

- Activity [1]: Active
- inhibition [2]: Dose-dependent effect
SMILES: CCCOc1ccc(C(=O)NS(=O)(=O)Cc2ccccc2)cc1CNC(=O)c1ccc(-c2ncccn2)cc1

— ChEMBL document CHEMBL3588857, “Peroxisome proliferator-activated receptor gamma (PPARγ) has multiple binding points that accommodate ligands in various conformations: Structurally similar PPARγ partial agonists bind to PPARγ LBD in different conformations” (Bioorg Med Chem Lett, 2015)
